How the values were obtained:
[1] = target: T1, MMP2 (Homo sapiens, UniProt P08253); test: Fluorometric enzyme inhibition assay with fluorogenic substrate Mca-Lys-Pro-Leu-Gly-Leu-Dpa-Ala-Arg-NH2 (MMP2); type: biochemical; conditions: for inhibition at 10 µM: 10 μM compound; for inhibition at 10 µM / inhibition at 50 µM / IC50: enzyme 1 nM; for inhibition at 10 µM / inhibition at 50 µM: mean of three assays; for inhibition at 50 µM: 50 μM compound; for IC50: dose-response
T1 sequence (P08253 110-660): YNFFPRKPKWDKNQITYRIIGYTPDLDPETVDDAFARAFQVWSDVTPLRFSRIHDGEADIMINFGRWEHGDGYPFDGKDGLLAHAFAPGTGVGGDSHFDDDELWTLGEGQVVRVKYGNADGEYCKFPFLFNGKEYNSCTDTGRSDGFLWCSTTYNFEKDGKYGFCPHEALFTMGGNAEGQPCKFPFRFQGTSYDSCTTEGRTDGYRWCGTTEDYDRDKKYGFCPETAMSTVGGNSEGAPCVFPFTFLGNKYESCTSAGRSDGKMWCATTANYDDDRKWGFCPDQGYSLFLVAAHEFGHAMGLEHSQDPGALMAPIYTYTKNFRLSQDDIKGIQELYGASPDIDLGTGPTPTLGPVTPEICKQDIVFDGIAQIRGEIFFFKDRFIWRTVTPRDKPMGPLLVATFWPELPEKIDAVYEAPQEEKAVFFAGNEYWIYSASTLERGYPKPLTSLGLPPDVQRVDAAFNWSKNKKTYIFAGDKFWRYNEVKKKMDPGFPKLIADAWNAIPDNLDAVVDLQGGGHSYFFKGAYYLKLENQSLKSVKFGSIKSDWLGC
Procedure: (§1) For all the compounds showing >50% inhibition activity the IC50 values were obtained by dose-response measurements using an inhibitor range of concentrations (0.01 nM–20 μM) and enzyme concentration equal to 1 nM.
(§2) The inhibition potency of hydroxamic acid derivatives against MMP2 and MMP9 was assayed through a fluorometric assay using the fluorogenic substrate Mca-Lys-Pro-Leu-Gly-Leu-Dpa-Ala-Arg-NH2 (Enzo life science). All the measurements were performed in 96-well plates with a Fluostar Optima microplate reader (BMG Labtech, Ortenberg, Germany). Excitation and emission wavelengths were 320 and 420 nm, respectively. All incubations were performed at 28 °C in 50 mM TrisHCl, 150 mM NaCl, 10 mM CaCl2, 0.05% Brij 35, 1% DMSO at pH 7.5. The inhibitors were pre-incubated with enzymes (1 nM) for 5 min at room temperature before the reaction was started by the addition of the fluorogenic substrate (3 µM). The […] of fluorescence was monitored over 30 min (λex = 320 nm, λem = 420 nm) at 28 °C. The percentages of inhibition for the test compounds were determined through the equation (1 − Vs/Vo) × 100, where vs. is the initial velocity in the presence of the inhibitor and V0 is the initial velocity of the uninhibited reaction. The IC50 values were obtained by dose-response measurements using inhibitor range of concentrations 0.00001–20 μM and enzyme concentration equal to 1 nM. A detergent-based assay was used to determine the presence of promiscuous inhibitors. All the experiments were performed in triplicates and data collected were analyzed using Graphpad 5.0 Software Package (GraphPad Prism Inc., San Diego, CA, USA).

[2] = target: MMP9 (Homo sapiens, UniProt P14780); test: Fluorometric enzyme inhibition assay with fluorogenic substrate Mca-Lys-Pro-Leu-Gly-Leu-Dpa-Ala-Arg-NH2 (MMP9); type: biochemical; conditions: for inhibition at 10 µM: 10 μM compound; for inhibition at 10 µM / inhibition at 50 µM / IC50: enzyme 1 nM; for inhibition at 10 µM / inhibition at 50 µM: mean of three assays; for inhibition at 50 µM: 50 μM compound; for IC50: dose-response
Procedure: as §1, §2

[3] = target: T2, purified human integrin proteins αvβ3 (Homo sapiens, UniProt P05106+P06756); test: Solid-phase integrin binding assay (competition with biotinylated vitronectin); conditions: for inhibition at 0.1 µM / inhibition at 1 µM / inhibition at 10 µM: read-out: Inhibition % of biotinylated vitronectin specific binding to αvβ3
T2 construct: purchased Sino Biological Europe GmbH, Eschborn, Germany
Procedure: As regarding to the binding affinity towards αvβ3, the library was screened using an in vitro solid-phase assays were performed at 10, 1.0 and 0.1 μM concentration of the test compounds for their ability to compete with biotinylated vitronectin for binding to pure αvβ3 integrin isolated from human placenta, and % binding activity is reported in Table 2.
Purified αvβ3 receptors (Sino Biological Europe GmbH, Eschborn, Germany) were diluted to 0.5 μg/mL in coating buffer containing Tris-HCl (20 mmol/L; pH 7.4), NaCl (150 mmol/L), MnCl2 (1 mmol/L), CaCl2 (2 mmol/L) and MgCl2 (1 mmol/L). An aliquot of diluted receptors (100 μL per well) was added to 96-well microtiter plates (MW 96F Medisorp Straight Nunc, Thermo Fischer Scientific, Waltham, MA, USA) and incubated, overnight, at 4 °C. The plates were then incubated with blocking solution (coating buffer plus 5% bovine serum albumin) for an additional 2 h at room temperature to block nonspecific binding followed by 3 h incubation at room temperature with various concentrations of test compounds in the presence of vitronectine (1 μg/mL, Sigma Aldrich, Merck KGaA, Darmstadt, Germany) biotinylated by using EZ-Link Sulfo-NHS-Biotinylation kit (Thermo Fisher, Waltham, MA, USA). After washing, the plates were incubated for 1 h at room temperature with streptavidin–biotinylated peroxidase complex (GE Healthcare, Chicago, IL, USA), followed by 30 min incubation with substrate reagent solution (100 μL; R&D Systems) before stopping the reaction by addition of H2SO4 (2 N, 50 μL). Absorbance at 415 nm was read with a BMG Labtech Fluostar Optima microplate reader. All the experiments were performed in triplicates and data collected were analyzed using the GraphPad 5.0 Software Package.

[4] = tested on: M21 human melanoma cells; test: Inhibition of integrin-mediated M21 cell adhesion to vitronectin; type: cell-based; conditions: 2 mM MnCl2, relative to vehicle (PBS); for inhibition at 0.3 µM / inhibition at 3 µM / inhibition at 30 µM: Homo sapiens, M21
Procedure: All the compounds but 17 were also tested for their integrin binding affinity towards M21 human melanoma cells that expresses high levels of αvβ3 heterodimer and using cilengitide as a control. Tests were performed in the presence of 2 mM MnCl2 to switch integrins of tumour cells into an activated form, and at final concentration of the compounds ranging from 30 μM to 0.3 μM (Table 3). […] We were pleased to find that compound 19 maintained a good inhibition potency at 0.3 μM as the lowest concentration used, thus confirming the capacity of this compound to inhibit the binding of M21 melanoma cells to vitronectin as an RGD-containing substrate.
The expression levels of αVβ3 integrin receptors on M21 melanoma cell lines were reported previously. Next, 96 wells plates were coated overnight, at 4 °C, with vitronectin (5 μg/mL in PBS) (V8379 Sigma). Plates were, then washed with phosphate buffered saline (PBS) solution and incubated at 37 °C for 1 h with PBS containing 1% bovine serum albumin (BSA). M21 cells were centrifugated (RT, at 700× g) in PBS, to remove serum. Cells were counted and suspended in serum-free medium at 5.0 × 10^5 cells/mL. Melanoma cell suspensions were pre-incubated with different amounts of the compounds. The final concentration ranged from 30 uM to 0.3 uM, using cilengitide as a control. The incubation was performed at 37 °C for 30 min to allow the ligand-receptor equilibrium to be reached. Next, cells were plated on VN substrata (5–6 × 10^4 cells/well) and incubated at 37 °C for 1 h. The assays were conducted in the presence of 2 mmol/L MnCl2 [26]. At the end of the incubation, plates were washed with PBS to remove the non-adherent cells, and 200 μL of 0.5% crystal violet solution in 20% methanol were added. After 2 h of static incubation at 4 °C, plates were examined at 540 nm in a counter ELX800 (Bio TEK Instruments, Winooski, VT, USA). Experiments were done in triplicate and repeated at least three times. The values are expressed as % inhibition of cell adhesion relative to cells exposed to vehicle alone (PBS).

| Molecule | inhibition at 10 µM [1] [%] | inhibition at 50 µM [1] [%] | IC50 [1] [nM] | inhibition at 10 µM [2] [%] | inhibition at 50 µM [2] [%] | IC50 [2] [nM] | inhibition at 0.1 µM [3] [%] | inhibition at 1 µM [3] [%] | inhibition at 10 µM [3] [%] | IC50 towards MMP2, in words [1] | IC50 towards MMP9, in words ([2]; statement in text (gelatinases)) | IC50 ([3]; dose-response assay, read-out: IC50 (αvβ3), inhibition of biotinylated vitronectin binding) [nM] | inhibition at 0.3 µM ([4]; at 0.3 μM) [%] | inhibition at 3 µM ([4]; at 3 μM) [%] | inhibition at 30 µM ([4]; at 30 μM) [%] | Inhibition % of M21 cell adhesion to vitronectin ([4]; at 0.3 μM) [%] | Inhibition % of M21 cell adhesion to vitronectin ([4]; at 3 μM) [%] | Inhibition % of M21 cell adhesion to vitronectin ([4]; at 30 μM) [%] |
| --- | --- | --- | --- | --- | --- | --- | --- | --- | --- | --- | --- | --- | --- | --- | --- | --- | --- | --- |
| NCCCOc1ccc(C[C@H](NS(=O)(=O)c2ccc([N+](=O)[O-])cc2)C(=O)O)cc1 [Compound 17, (S)-3-(4-(3-Aminopropoxy)phenyl)-2-(4-nitrophenylsulfonamido)propanoic Acid] | 0 | 0 | – | 0 | 0 | – | 0 | 0 | 0 | – | – | – | – | – | – | – | – | – |
| NCCCOc1ccc(C[C@H](NS(=O)(=O)c2ccc(-c3ccccc3)cc2)C(=O)O)cc1 [Compound 16, (S)-2-([1,1′-Biphenyl]-4-ylsulfonamido)-3-(4-(3-aminopropoxy)phenyl)propanoic Acid] | 60 | 79 | 1200 | 0 | 0 | – | 26 | 26 | 19 | micromolar range | – | – | 28 | 28.9 | 68.5 | – | – | – |
| N=C(N)NCCCOc1ccc(C[C@H](NS(=O)(=O)c2ccccc2)C(=O)O)cc1 [Compound 9, (S)-3-(4-(3-Guanidinopropoxy)phenyl)-2-(phenylsulfonamido)propanoic Acid] | 0 | 21 | – | 0 | 0 | – | 0 | 18 | 54 | – | – | – | 41.4 | 62.5 | 75.9 | – | – | – |
| N=C(N)NCCCOc1ccc(C[C@H](NS(=O)(=O)c2ccc(-c3ccccc3)cc2)C(=O)O)cc1 [Compound 10, (S)-2-([1,1′-Biphenyl]-4-ylsulfonamido)-3-(4-(3-guanidinopropoxy)phenyl)propanoic Acid] | 16 | 41 | – | 0 | 0 | – | 8 | 1 | 5 | – | – | – | 43.8 | 76.7 | 76.9 | – | – | – |
| c[RGDf(Me)V] [Cilengitide, reference compound] | – | – | – | – | – | – | – | – | – | – | – | – | – | – | – | 80 | 76 | 62 |

Second part, led by results:

| inhibition at 10 µM [1] [%] | inhibition at 50 µM [1] [%] | IC50 [1] [nM] | inhibition at 10 µM [2] [%] | inhibition at 50 µM [2] [%] | IC50 [2] [nM] | inhibition at 0.1 µM [3] [%] | inhibition at 1 µM [3] [%] | inhibition at 10 µM [3] [%] | IC50 towards MMP2, in words [1] | IC50 towards MMP9, in words ([2]; statement in text (gelatinases)) | IC50 ([3]; dose-response assay, read-out: IC50 (αvβ3), inhibition of biotinylated vitronectin binding) [nM] | Molecule | inhibition at 0.3 µM ([4]; at 0.3 μM) [%] | inhibition at 3 µM ([4]; at 3 μM) [%] | inhibition at 30 µM ([4]; at 30 μM) [%] | Inhibition % of M21 cell adhesion to vitronectin ([4]; at 0.3 μM) [%] | Inhibition % of M21 cell adhesion to vitronectin ([4]; at 3 μM) [%] | Inhibition % of M21 cell adhesion to vitronectin ([4]; at 30 μM) [%] |
| --- | --- | --- | --- | --- | --- | --- | --- | --- | --- | --- | --- | --- | --- | --- | --- | --- | --- | --- |
| 97 | 100 | 37 | 63 | 73 | 361 | 20 | 12 | 2 | – | – | – | O=C(NO)[C@H](Cc1ccc(O)cc1)NS(=O)(=O)c1ccc(-c2ccccc2)cc1 [Compound 21, (S)-2-([1,1′-Biphenyl]-4-ylsulfonamido)-N-hydroxy-3-(4-hydroxyphenyl)propanamide] | 29.7 | 28.8 | 17.4 | – | – | – |
| 52 | 75 | 760 | 42 | 63 | 1300 | 0 | 0 | 27 | – | – | – | N=C(N)NCCCOc1ccc(C[C@H](NS(=O)(=O)c2ccccc2)C(=O)NO)cc1 [Compound 18, (S)-3-(4-(3-Guanidinopropoxy)phenyl)-N-hydroxy-2-(phenylsulfonamido)propanamide] | 44.9 | 64.3 | 74.1 | – | – | – |
| 100 | 100 | 55 | 100 | 100 | 38 | 21 | 41 | 88 | nanomolar range | nanomolar range | 370 | NCCCOc1ccc(C[C@H](NS(=O)(=O)c2ccc(-c3ccccc3)cc2)C(=O)NO)cc1 [Compound 19, (S)-2-([1,1′-Biphenyl]-4-ylsulfonamido)-3-(4-(3-aminopropoxy)phenyl)-N-hydroxypropanamide] | 57.8 | 35.8 | 65.7 | – | – | – |

From article PMC8879803, “Identification of a Common Pharmacophore for Binding to MMP2 and RGD Integrin: Towards a Multitarget Approach to Inhibit Cancer Angiogenesis and Metastasis” (Molecules, 2022)
